These results are taken from US8962641B2, “Pyrimidine-substituted pyrrolidine derivatives, pharmaceutical compositions and uses thereof” (Boehringer Ingelheim International GmbH, priority 2013, dated 2015).

In the assay the target is human ACC2 (Homo sapiens (Human), UniProt O00763). Kind of assay: ACC2 assay (spectrophotometric 384 well assay, NADH-linked kinetic method). The format is biochemical. The following applies: hACC2 construct lacking 128 N-terminal amino acids; coupled lactate dehydrogenase/pyruvate kinase reaction, 340 nm, 25° C. The protocol:
Spectrophotometric 384 Well Assay
Malonyl CoA formation by acetyl CoA carboxylases is stoichometrically linked to the consumption of ATP. ACC2 activity is measured in a NADH-linked kinetic method measuring ADP generated during the ACC reaction using a coupled lactate dehydrogenase/pyruvate kinase reaction.
The protein is then expressed in insect cells using a baculoviral expression system. Protein purification is performed by anion exchange.
All compounds are dissolved in dimethyl sulfoxide (DMSO) to a concentration of 10 mM.
The enzymatic reaction is then started by addition of a mixture of NADH, acetyl Coenzyme A (both 200 μM f.c.) and ATP (500 uM f.c.). The decrease of the optical density (slope S) is then determined at 25° C. at a wavelength of 340 nm over 15 minutes in a spectrophotometric reader.
Each assay microtiter plate contains wells with vehicle instead of compound as controls for the non-inhibited enzyme (100% CTL; ‘HIGH’) and wells without acetyl-CoA as controls for non-specific NADH degradation (0% CTL; ‘LOW’).

Sequence of human ACC2 (O00763 129-2458): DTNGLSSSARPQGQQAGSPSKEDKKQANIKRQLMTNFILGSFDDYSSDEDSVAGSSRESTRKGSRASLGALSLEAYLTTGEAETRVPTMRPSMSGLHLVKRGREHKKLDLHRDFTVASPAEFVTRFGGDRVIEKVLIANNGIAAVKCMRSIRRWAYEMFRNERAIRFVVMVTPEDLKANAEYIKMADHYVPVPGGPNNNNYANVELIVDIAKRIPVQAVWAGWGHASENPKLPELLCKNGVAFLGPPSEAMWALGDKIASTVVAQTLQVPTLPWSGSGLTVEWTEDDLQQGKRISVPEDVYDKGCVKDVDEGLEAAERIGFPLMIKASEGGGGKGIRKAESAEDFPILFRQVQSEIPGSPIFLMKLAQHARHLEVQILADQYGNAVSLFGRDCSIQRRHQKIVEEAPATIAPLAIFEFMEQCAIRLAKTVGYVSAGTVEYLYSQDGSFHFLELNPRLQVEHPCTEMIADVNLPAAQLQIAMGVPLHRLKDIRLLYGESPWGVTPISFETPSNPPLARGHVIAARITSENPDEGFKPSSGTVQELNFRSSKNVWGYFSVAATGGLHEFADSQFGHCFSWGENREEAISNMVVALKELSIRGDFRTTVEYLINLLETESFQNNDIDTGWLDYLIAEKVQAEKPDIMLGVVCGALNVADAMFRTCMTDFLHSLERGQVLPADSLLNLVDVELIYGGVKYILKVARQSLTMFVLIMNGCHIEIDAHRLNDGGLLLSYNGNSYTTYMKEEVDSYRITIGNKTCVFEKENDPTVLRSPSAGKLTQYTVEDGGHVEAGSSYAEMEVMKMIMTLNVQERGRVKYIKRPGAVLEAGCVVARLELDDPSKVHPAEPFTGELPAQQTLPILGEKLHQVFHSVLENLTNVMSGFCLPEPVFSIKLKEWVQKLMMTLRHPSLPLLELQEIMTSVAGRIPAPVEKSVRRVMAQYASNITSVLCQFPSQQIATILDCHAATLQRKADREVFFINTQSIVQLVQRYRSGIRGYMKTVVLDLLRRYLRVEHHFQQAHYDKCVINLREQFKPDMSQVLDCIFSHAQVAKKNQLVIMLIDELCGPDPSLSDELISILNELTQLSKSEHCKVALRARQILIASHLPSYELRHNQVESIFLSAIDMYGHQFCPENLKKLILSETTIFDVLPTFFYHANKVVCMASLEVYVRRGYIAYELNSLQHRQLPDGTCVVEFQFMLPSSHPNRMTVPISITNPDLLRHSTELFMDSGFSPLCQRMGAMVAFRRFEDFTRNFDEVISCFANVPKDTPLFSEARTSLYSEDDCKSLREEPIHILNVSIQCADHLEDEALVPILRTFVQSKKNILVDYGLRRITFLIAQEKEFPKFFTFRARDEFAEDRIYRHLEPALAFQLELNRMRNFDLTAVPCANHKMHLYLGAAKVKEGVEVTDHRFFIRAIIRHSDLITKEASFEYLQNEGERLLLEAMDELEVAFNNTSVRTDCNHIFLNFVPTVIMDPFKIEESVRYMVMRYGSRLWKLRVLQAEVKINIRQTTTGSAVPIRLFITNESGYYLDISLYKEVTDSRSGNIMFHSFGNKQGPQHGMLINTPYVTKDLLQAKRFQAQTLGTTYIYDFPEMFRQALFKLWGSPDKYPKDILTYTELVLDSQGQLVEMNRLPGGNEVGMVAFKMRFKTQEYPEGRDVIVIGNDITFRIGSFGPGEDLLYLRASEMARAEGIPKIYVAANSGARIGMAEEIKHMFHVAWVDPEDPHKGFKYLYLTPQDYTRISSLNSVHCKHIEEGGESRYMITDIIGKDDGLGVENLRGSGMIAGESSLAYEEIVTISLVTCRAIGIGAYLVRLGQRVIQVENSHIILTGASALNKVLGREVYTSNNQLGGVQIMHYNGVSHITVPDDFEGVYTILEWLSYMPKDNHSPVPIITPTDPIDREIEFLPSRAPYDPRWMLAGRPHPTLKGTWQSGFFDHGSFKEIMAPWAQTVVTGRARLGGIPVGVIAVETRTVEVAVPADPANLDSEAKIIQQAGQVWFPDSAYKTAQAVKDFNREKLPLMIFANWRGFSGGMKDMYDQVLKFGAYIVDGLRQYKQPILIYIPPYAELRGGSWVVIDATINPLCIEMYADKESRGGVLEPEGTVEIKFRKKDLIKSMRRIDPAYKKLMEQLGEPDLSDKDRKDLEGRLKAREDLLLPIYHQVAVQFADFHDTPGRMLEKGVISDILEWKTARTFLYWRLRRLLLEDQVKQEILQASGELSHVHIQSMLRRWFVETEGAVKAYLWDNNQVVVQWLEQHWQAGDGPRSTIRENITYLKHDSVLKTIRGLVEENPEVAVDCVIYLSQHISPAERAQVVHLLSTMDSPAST

Consider `CC(=O)N[C@@H](C)c1ccc(O[C@@H]2CCN(c3ncnc(OCC4CC4(F)F)c3Cl)C2)cc1` (some centres unmarked) [Example 7.40], for which the IC50 came to 42 nM.

`CC(=O)N[C@@H](C)c1ccc(O[C@@H]2CCN(c3ncnc(OC4CCC4)c3Cl)C2)cc1` [Example 7.41]: the 50% inhibitory concentration (IC50) was 39 nM.

In the case of `CC(=O)N[C@@H](C)c1ccc(O[C@@H]2CCN(c3ncnc(OCC(C)(C)O)c3Cl)C2)cc1` [Example 7.42], the IC50 worked out at 81 nM.

As for `CCOc1ncnc(N2CC[C@@H](Oc3ccc([C@H](C)NC(C)=O)cc3)C2)c1OC` [Example 7.44], the concentration for half-maximal inhibition (IC50) was 277 nM.

`CC(=O)N[C@@H](C)c1ccc(O[C@@H]2CCN(c3ncnc(OC[C@H]4CC4(F)F)c3F)C2)cc1` [Example 7.45]: half-maximal inhibition (IC50) was put at 99 nM.

The compound `COC(C)(C)COc1ncnc(N2CC[C@@H](Oc3ccc([C@H](C)NC(C)=O)cc3)C2)c1F` [Example 7.46] returned a half-maximal inhibitory concentration (IC50) of 595 nM.

For `CC(=O)N[C@@H](C)c1ccc(O[C@@H]2CCN(c3ncnc(OC4CCCC4)c3F)C2)cc1` [Example 7.47], half-maximal inhibition (IC50) required 58 nM.

`CC(=O)N[C@@H](C)c1ccc(O[C@@H]2CCN(c3ncnc(OC[C@@H]4CC4(F)F)c3F)C2)cc1` [Example 7.48] returned an IC50 of 87 nM.

For the compound `COc1c(OCC(C)(F)F)ncnc1N1CC[C@@H](Oc2ccc([C@H](C)NC(C)=O)cc2)C1` [Example 7.49], inhibition was half-maximal at 117 nM (IC50).

Take `COc1c(OC(C)C)ncnc1N1CC[C@@H](Oc2ccc([C@H](C)NC(C)=O)cc2)C1` [Example 7.50]: it took 97 nM to reach half-maximal inhibition (IC50).

Turning to `CCCOc1ncnc(N2CC[C@@H](Oc3ccc([C@H](C)NC(C)=O)cc3)C2)c1OC` [Example 7.51], inhibition was half-maximal at 392 nM (IC50).

The compound `CC(=O)N[C@@H](C)c1ccc(O[C@@H]2CCN(c3ncnc(OC(C)C)c3Cl)C2)cc1` [Example 7.52] registered an IC50 of 105 nM.

`CC(=O)N[C@@H](C)c1ccc(O[C@@H]2CCN(c3ncnc(OC4CCCC4)c3Cl)C2)cc1` [Example 7.53] had a half-maximal inhibitory concentration (IC50) of 32 nM.

For the compound `COc1c(OCC(F)F)ncnc1N1CC[C@@H](Oc2ccc([C@H](C)NC(C)=O)cc2)C1` [Example 7.54], the IC50 was 162 nM.

Consider `COc1c(OC2CCCC2)ncnc1N1CC[C@@H](Oc2ccc([C@H](C)NC(C)=O)cc2)C1` [Example 7.55], for which the IC50 is 69 nM.

With `COc1c(OCC2CC2(F)F)ncnc1N1CC[C@@H](Oc2ccc([C@H](C)NC(C)=O)cc2)C1` (some centres unmarked) [Example 7.56], the half-maximal inhibitory concentration (IC50) was determined as 75 nM.

Turning to `CC(=O)N[C@@H](C)c1ccc(O[C@@H]2CCN(c3ncnc(OCC(F)F)c3Cl)C2)cc1` [Example 7.57], the midpoint of inhibition, the IC50, lay at 109 nM.

For the compound `COc1c(OCC(C)(C)O)ncnc1N1CC[C@@H](Oc2ccc([C@H](C)NC(C)=O)cc2)C1` [Example 7.58], half-maximal inhibition (IC50) required 355 nM.

For the compound `COc1c(OCC2CC2)ncnc1N1CC[C@@H](Oc2ccc([C@H](C)NC(C)=O)cc2)C1` [Example 7.59], the midpoint of inhibition, the IC50, lay at 39 nM.

For the compound `COC(C)(C)COc1ncnc(N2CC[C@@H](Oc3ccc([C@H](C)NC(C)=O)cc3)C2)c1Cl` [Example 7.60], the IC50 is 145 nM.

With `COc1c(OCC(C)(C)OC)ncnc1N1CC[C@@H](Oc2ccc([C@H](C)NC(C)=O)cc2)C1` [Example 7.61], the IC50 is 233 nM.

`CCC(=O)Nc1nc(C)c(C(=O)N[C@@H](C)c2ccc(O[C@@H]3CCN(c4ncnc(OCC5CC5)c4OC)C3)cc2)s1` [Example 7.63] came in with a half-maximal inhibitory concentration (IC50) of 112 nM.

As for `CC(=O)N[C@@H](C)c1ccc(O[C@@H]2CCN(c3ncnc(OC4CCOCC4)c3Cl)C2)cc1` [Example 7.64], the IC50 amounted to 128 nM.

Turning to `CCC(=O)Nc1nc(C)c(C(=O)N[C@@H](C)c2ccc(O[C@@H]3CCN(c4ncnc(OCC(C)(C)O)c4F)C3)cc2)s1` [Example 7.65], the IC50 is 650 nM.

For the compound `CCC(=O)Nc1nc(C)c(C(=O)N[C@@H](C)c2ccc(O[C@@H]3CCN(c4ncnc(OCC(C)(C)O)c4Cl)C3)cc2)s1` [Example 7.66], 723 nM corresponded to half-maximal inhibition (IC50).

Compound `CC(=O)N[C@@H](C)c1ccc(O[C@@H]2CCN(c3nc(OCC4CC4(F)F)ncc3F)C2)cc1` (some centres unmarked) [Example 7.67] had an IC50 of 789 nM.

The compound `CC(=O)N[C@@H](C)c1ccc(O[C@@H]2CCN(c3nc(N(C)C)ncc3F)C2)cc1` [Example 8.1, N—((S)-1-(4-((R)-1-(2-(dimethylamino)-5-fluoropyrimidin-4-yl)pyrrolidin-3-yloxy)phenyl)ethyl)acetamide] had a 50% inhibitory concentration (IC50) of 55 nM.

Compound `CC(=O)N[C@@H](C)c1ccc(O[C@@H]2CCN(c3cc(N(C)CC4CC4)ncn3)C2)cc1` [Example 8.2] returned a 50% inhibitory concentration (IC50) of 424 nM.

For `CC(=O)N[C@@H](C)c1ccc(O[C@@H]2CCN(c3ccnc(N(C)CC4CC4)n3)C2)cc1` [Example 8.3], half-maximal inhibition (IC50) required 125 nM.

On to `CC(=O)N[C@@H](C)c1ccc(O[C@@H]2CCN(c3ccnc(NC4CCCC4)n3)C2)cc1` [Example 8.4], for which the midpoint of inhibition, the IC50, lay at 1030 nM.

Consider `CC(=O)N[C@@H](C)c1ccc(O[C@@H]2CCN(c3ccnc(N4CCCC4)n3)C2)cc1` [Example 8.5], for which it took 403 nM to reach half-maximal inhibition (IC50).

Compound `CCCN(C)c1nccc(N2CC[C@@H](Oc3ccc([C@H](C)NC(C)=O)cc3)C2)n1` [Example 8.6] showed an IC50 of 102 nM.

Compound `CCCN(C)c1cc(N2CC[C@@H](Oc3ccc([C@H](C)NC(C)=O)cc3)C2)ncn1` [Example 8.7] returned a half-maximal inhibitory concentration (IC50) of 865 nM.

`CC(=O)N[C@@H](C)c1ccc(O[C@@H]2CCN(c3nc(N4CCCCC4)ncc3F)C2)cc1` [Example 8.8] registered a half-maximal inhibitory concentration (IC50) of 45 nM.

For the compound `CC(=O)N[C@@H](C)c1ccc(O[C@@H]2CCN(c3nc(N(C)CC4CC4)ncc3F)C2)cc1` [Example 8.9], it took 33 nM to reach half-maximal inhibition (IC50).

For `CC(=O)N[C@@H](C)c1ccc(O[C@@H]2CCN(c3nc(NC4CCCC4)ncc3F)C2)cc1` [Example 8.10], the IC50 is 190 nM.

Compound `CC(=O)N[C@@H](C)c1ccc(O[C@@H]2CCN(c3nc(N(C)C4CCCC4)ncc3F)C2)cc1` [Example 8.11] gave an IC50 of 58 nM.

Compound `CC(=O)N[C@@H](C)c1ccc(O[C@@H]2CCN(c3nc(N4CCCC4)ncc3F)C2)cc1` [Example 8.12] came in with a 50% inhibitory concentration (IC50) of 67 nM.

In turn, `CC(=O)N[C@@H](C)c1ccc(O[C@@H]2CCN(c3ccnc(N(C)C)n3)C2)cc1` [Example 8.14] showed a half-maximal inhibitory concentration (IC50) of 710 nM.

`CC(=O)N[C@@H](C)c1ccc(O[C@@H]2CCN(c3ccnc(N4CCCC4C)n3)C2)cc1` (some centres unmarked) [Example 8.16] showed an IC50 of 354 nM.

As for `CC(=O)N[C@@H](C)c1ccc(O[C@@H]2CCN(c3ccnc(N4CCC(C)C4)n3)C2)cc1` (some centres unmarked) [Example 8.17], it took 167 nM to reach half-maximal inhibition (IC50).

In turn, `CC(=O)N[C@@H](C)c1ccc(O[C@@H]2CCN(c3ccnc(N4CCCCC4)n3)C2)cc1` [Example 8.18] yielded a half-inhibitory concentration (IC50) of 160 nM.

In the case of `CC(=O)N[C@@H](C)c1ccc(O[C@@H]2CCN(c3ccnc(N(C)C4CC4)n3)C2)cc1` [Example 8.19], the half-maximal inhibitory concentration (IC50) came to 475 nM.

The compound `CC(=O)N[C@@H](C)c1ccc(O[C@@H]2CCN(c3ccnc(N(C)C4CCCC4)n3)C2)cc1` [Example 8.20] gave an IC50 of 170 nM.

As to `CCN(C)c1nccc(N2CC[C@@H](Oc3ccc([C@H](C)NC(C)=O)cc3)C2)n1` [Example 8.21], inhibition was half-maximal at 190 nM (IC50).

The compound `CC(=O)N[C@@H](C)c1ccc(O[C@@H]2CCN(c3ccnc(N(C)CCc4ccccc4)n3)C2)cc1` [Example 8.22] displayed an IC50 of 986 nM.

Compound `CC(=O)N[C@@H](C)c1ccc(O[C@@H]2CCN(c3ccnc(N(C)Cc4ccccc4)n3)C2)cc1` [Example 8.23] registered an IC50 of 185 nM.

What is called IC50 is the concentration at which inhibition is half-maximal. A high value points to weaker potency.
